The first assay has as its target T1, EHMT2 (Homo sapiens, UniProt Q96KQ7).
T1 construct: host or cells: MDA-MB-231
T1 sequence (Q96KQ7 1-1210): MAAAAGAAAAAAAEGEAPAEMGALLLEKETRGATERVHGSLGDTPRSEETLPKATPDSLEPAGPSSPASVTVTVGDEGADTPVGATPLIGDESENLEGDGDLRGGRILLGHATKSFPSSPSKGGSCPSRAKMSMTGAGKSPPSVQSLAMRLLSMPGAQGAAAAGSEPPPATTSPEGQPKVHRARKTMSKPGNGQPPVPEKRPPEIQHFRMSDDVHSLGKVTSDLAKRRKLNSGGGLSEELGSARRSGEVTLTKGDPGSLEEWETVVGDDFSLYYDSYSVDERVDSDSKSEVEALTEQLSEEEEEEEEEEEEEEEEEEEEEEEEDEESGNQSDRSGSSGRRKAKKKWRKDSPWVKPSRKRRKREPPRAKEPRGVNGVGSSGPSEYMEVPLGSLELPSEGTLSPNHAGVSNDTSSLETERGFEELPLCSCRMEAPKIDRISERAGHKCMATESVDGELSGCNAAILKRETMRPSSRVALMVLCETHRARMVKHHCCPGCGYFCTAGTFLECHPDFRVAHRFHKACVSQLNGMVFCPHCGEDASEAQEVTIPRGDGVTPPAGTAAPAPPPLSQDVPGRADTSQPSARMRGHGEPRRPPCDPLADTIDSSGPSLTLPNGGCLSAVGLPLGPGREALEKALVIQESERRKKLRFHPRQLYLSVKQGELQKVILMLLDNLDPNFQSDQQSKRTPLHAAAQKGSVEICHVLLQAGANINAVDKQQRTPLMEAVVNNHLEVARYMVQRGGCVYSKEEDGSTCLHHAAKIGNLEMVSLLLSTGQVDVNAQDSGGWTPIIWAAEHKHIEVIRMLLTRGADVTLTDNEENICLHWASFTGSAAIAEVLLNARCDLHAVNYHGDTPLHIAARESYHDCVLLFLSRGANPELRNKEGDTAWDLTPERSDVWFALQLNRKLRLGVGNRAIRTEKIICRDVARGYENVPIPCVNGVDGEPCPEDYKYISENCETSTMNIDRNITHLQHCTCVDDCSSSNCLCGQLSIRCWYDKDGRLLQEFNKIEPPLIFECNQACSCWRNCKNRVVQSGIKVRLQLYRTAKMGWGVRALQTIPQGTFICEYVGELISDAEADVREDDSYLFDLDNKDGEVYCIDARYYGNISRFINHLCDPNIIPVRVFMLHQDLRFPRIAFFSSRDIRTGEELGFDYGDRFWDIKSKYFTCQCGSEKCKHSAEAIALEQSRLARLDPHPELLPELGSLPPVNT
The assay can be described thus: MDA-MB-231 H3K9me2 in-cell Western assay (EHMT2 ICW). The class given is cell-based. The settings on record: H3K9me2 in-cell Western, MDA-MB-231 cells; read-out: EHMT2 ICW (IC50 μM). In outline:
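Cells seeded at 3,000/well onto pre-dispensed compound; 30 min RT, then 48 h 37 °C/5% CO2. PFA fix, block, α-H3K9me2 1:800 o/n 4 °C, 800CW secondary + DRAQ5. Odyssey scan 700/800 nm; ratio → % inhibition → 4-parameter IC50.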
For the compound `COc1cc2c(C3CCN(C)CC3)cc(C)nc2cc1OCCCN1CCCC1` [Compound 536], the IC50 lay in the range of 0.1 to 1 µM. For the compound `CNc1nc(C2CCN(C(C)=O)CC2)c2cc(OC)c(OCCCN3CCCC3)cc2n1` [Compound 519], the IC50 was above 10 µM.

For `CNc1cc(C)nc(Nc2ccc(OC)c(OCCCN3CC(O)C3)c2)n1` [Compound 465, 1-(3-(2-methoxy-5-((4-methyl-6-(methylamino)pyrimidin-2-yl)amino)phenoxy)propyl)azetidin-3-ol], the IC50 was 0.1 to 1 µM.

Turning to `CNc1nc(C2CCCC2)c2cc(OC)c(OCCCN3CCCC3)cc2n1` [Compound 518, 4-cyclopentyl-6-methoxy-N-methyl-7-(3-(pyrrolidin-1-yl)propoxy)quinazolin-2-amine], the IC50 was 1 to 10 µM. For `CNc1nc(C2CCN(C(C)C)CC2)c2cc(OC)c(OCCCN3CCCC3)cc2n1` [Compound 530], the IC50 was 1 to 10 µM. As for `CNc1nc(C2CCOCC2)c2cc(OC)c(OCCCN3CCCC3)cc2n1` [Compound 521], the IC50 is 1 to 10 µM. As to `CNc1cc(C2CCOCC2)nc(Nc2ccc(OC)c(OCCCN3CCCC3)c2)n1` [Compound 459, N^2-(4-methoxy-3-(3-(pyrrolidin-1-yl)propoxy)phenyl)-N^4-methyl-6-(tetrahydro-2H-pyran-4-yl)pyrimidine-2,4-diamine], the IC50 is above 10 µM. For the compound `CNc1cc(C)nc(Nc2ccc(OC)c(OCCC3CCN(C)C3)c2)n1` (stereo not drawn) [Compound 503], the IC50 was in the range of 1 to 10 µM.

For the compound `CNc1cc(C)nc(Nc2ccc(OC)c(OC3CCN(C4CC4)CC3)c2)n1` [Compound 466, N^2-(3-((1-cyclopropylpiperidin-4-yl)oxy)-4-methoxyphenyl)-N^4,6-dimethylpyrimidine-2,4-diamine], the IC50 is above 10 µM. On to `CNc1cc(C)nc(Nc2ccc(OC)c([C@H]3C[C@H]3CN(C)C)c2)n1` [Compound 488], for which the IC50 fell in the range of 0.1 to 1 µM. For `COc1cnc(Nc2nc(C)cc3[nH]ccc23)cc1OC[C@@H]1CCN(C2CC2)C1` [Compound 495], the IC50 fell in the range of 0.1 to 1 µM. In the case of `CNc1nc(C2CCN(CCO)CC2)c2cc(OC)c(OCCCN3CCCC3)cc2n1` [Compound 533], the IC50 lay within 0.1 to 1 µM. `CNc1nc(C2=CCOCC2)c2cc(OC)c(OCCCN3CCCC3)cc2n1` [Compound 522]: the IC50 was in the range of 1 to 10 µM. Consider `CNc1cc(C)nc(Nc2ccc(OC)c(OCCCN(C)C3CC3)c2)n1` [Compound 463, N^2-(3-(3-(cyclopropyl(methyl)amino)propoxy)-4-methoxyphenyl)-N^4,6-dimethylpyrimidine-2,4-diamine], for which the IC50 is 0.1 to 1 µM.

`CNc1cc(C)nc(Nc2ccc(OC)c(OCCCN3CCC3)c2)n1` [Compound 490]: the IC50 was below 0.1 µM. Take `CCc1ccc(Nc2nc(C)cc(NC)n2)cc1OCCCN1CCCC1` [Compound 497]: the IC50 lay within 0.1 to 1 µM. Regarding `CNc1cc(C2CCOCC2)c2cc(OC)c(OCCCN3CCCC3)cc2n1` [Compound 524, 6-methoxy-N-methyl-4-(oxan-4-yl)-7-[3-(pyrrolidin-1-yl)propoxy]quinolin-2-amine], the IC50 is below 0.1 µM. On the same count and under the same terms, as for `CNc1ccnc(Nc2ccc(OC)c(OC[C@@H]3CN(C)C[C@@H]3C)c2)n1` [Compound 477], the figure is 1 to 10 µM; as for `CNc1cc(C)nc(Nc2ccc(OC)c(OC[C@@H]3CN(C)C[C@H]3O)c2)n1` [Compound 491], 1 to 10 µM; as for `CNc1nc(C2CCN(C(C)C)CC2)c2cc(OC)c(OC[C@@H]3CCN(C4CC4)C3)cc2n1` [Compound 526], 0.1 to 1 µM. The same measure, in the same setting: as for `CNc1cc(C)nc(Nc2ccc(OC)c(OCCCN3CCCC3C)c2)n1` (stereo not drawn) [Compound 504, N^2-(4-methoxy-3-(3-(2-methylpyrrolidin-1-yl)propoxy)phenyl)-N^4,6-dimethylpyrimidine-2,4-diamine], the figure is 0.1 to 1 µM. Take `COc1cc2c(C3CCN(C)CC3)nc(N3CCCC3)nc2cc1OCCCN1CCCC1` [Compound 527]: the IC50 lay within 0.1 to 1 µM.

`CNc1cc(C2CCCC2)nc(Nc2ccc(OC)c(OCCCN3CCCC3)c2)n1` [Compound 458, 6-cyclopentyl-N^2-(4-methoxy-3-(3-(pyrrolidin-1-yl)propoxy)phenyl)-N^4-methylpyrimidine-2,4-diamine]: the IC50 lay in the range of 1 to 10 µM.

Turning to `CNc1cc(C)nc(Nc2ccc(OC)c(OCC3CCN(C4CCCC4)C3)c2)n1` (stereo not drawn) [Compound 456, N^2-(3-((1-cyclopentylpyrrolidin-3-yl)methoxy)-4-methoxyphenyl)-N^4,6-dimethylpyrimidine-2,4-diamine], the IC50 was above 10 µM.

Still in this assay, the particulars now being: Table VII; read-out: EHMT2 ICW IC50.
Take `CNc1cc(C)nc(Nc2ccc(C)c(C(=O)NCc3ccon3)c2)n1` [Compound 1114]: the IC50 is above 10 µM.

As for `CCN(C)C[C@@H](O)COc1cc(Nc2nc(C)cc(NC)n2)ccc1OC` [Compound 1113], the IC50 lay in the range of 1 to 10 µM. On the same count and under the same terms, the same measure for `CNc1cc(C)nc(Nc2ccc(OC)c(OC[C@H](O)CN3CCCC3)c2)n1` [Compound 1045]: 0.1 to 1 µM.

These data come from patent US20210198277A1, “AMINE-SUBSTITUTED ARYL OR HETEROARYL COMPOUNDS” (Epizyme, Inc., priority 2016, published 2021).
